Measurements from patent publication US20250188110A1, “SPECIFIC SMALL MOLECULE INHIBITORS THAT BLOCK KMT9 METHYLTRANSFERASE ACTIVITY AND FUNCTION” (ALBERT-LUDWIGS-UNIVERSITÄT FREIBURG, priority 2021, published 2025).
Where two headings read alike, the source gives them in different places.

Experiments:
KMT9 [1] = target: T1, KMT9 (Homo sapiens, UniProt Q9Y5N5); assay: Microscale thermophoresis (MST) KMT9 binding
T1 sequence (Q9Y5N5 1-214): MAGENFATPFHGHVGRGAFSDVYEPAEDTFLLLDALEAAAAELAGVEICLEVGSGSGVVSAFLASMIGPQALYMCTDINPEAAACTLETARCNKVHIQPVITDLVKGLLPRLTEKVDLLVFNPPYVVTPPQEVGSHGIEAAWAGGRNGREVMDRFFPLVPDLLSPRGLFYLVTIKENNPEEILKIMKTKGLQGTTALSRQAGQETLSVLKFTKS
T1 sequence (Q9UI30 1-120 isoform Q9UI30-2 partner): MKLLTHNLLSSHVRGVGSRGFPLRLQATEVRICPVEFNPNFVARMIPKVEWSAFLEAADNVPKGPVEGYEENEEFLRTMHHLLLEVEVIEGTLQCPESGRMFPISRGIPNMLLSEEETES
Outline: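 His-tagged KMT9 (20 nM), RED-Tris-NTA labelled, titrated with varying compound concentrations in 25 mM HEPES pH 7.5, 100 mM NaCl, 1 mM DTT, 0.05% Tween. MST at 40% MST and 100% LED power, Nano-RED excitation; Kd binned A ≤10 nM, B 10–100, C 100–1000, D >1000 nM.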

KMT9 [2] = target: T1, KMT9; assay: KMT9 thermal shift assay (SyproOrange); type: binding
Outline: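 Recombinant KMT9 was incubated with compound and SyproOrange at 25° C in 50 mM BTP pH 8.5, 1 mM MgCl2, 1 mM DTT. It was then heated from 20° C to 95° C at 1° C per 15 s with fluorescence read each step. Tm came from a Boltzmann sigmoidal fit; ΔTm relative to DMSO control, binned in 5 K ranges.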

KMT9 [3] = target: T1, KMT9; assay: KMT9 methyltransferase inhibition assay, MTaseGlo luminescence (from entry 155); type: biochemical; settings: 100 nM KMT9, 5 μM ETF1, 1 μM SAM
Protocol: For the compounds from entry 155 on in Table 1, the following procedure was used to determine IC50 values: The assay was carried out in white, opaque 384-well OptiPlates (PerkinElmer). For IC50 determination, a 2.5x substrate mix (final assay concentrations: 5 μM ETF1, 1 μM SAM and 1x MTaseGlo Reagent), a 2.5x KMT9 solution (final assay concentration 100 nM) and a 5x inhibitor stock 1:1 dilution series (concentration according to the desired range; dilution series was prepared in assay buffer containing 10% DMSO to obtain a final DMSO concentration of 2% in the assay) were prepared. 2 μL of 5x inhibitor stock and 4 μL of 2.5x KMT9 were pipetted, the plate was spun down at 700 rpm for 1 min using a Hettich UNIVERSAL 320 centrifuge and incubated at room temperature (around 25° C.) for 15 min. The reaction was initiated by adding 4 μL of 2.5x substrate mix, the plate was spun down as described before and incubated at 30° C. for 2 h. Afterwards, 10 μL of 2× MTaseGlo Detection solution was added, the plate was centrifuged as described above and incubated for 60 min at room temperature. Luminescence was measured using a PerkinElmer EnVision 2102 Multilabel Reader. Calculation of inhibition and data fitting was carried out as for entries 1-154. described above.
For the results of the methyltransferase inhibition assay shown as “Inhibition” in Table 1, “I” represents an IC50 less than 0.1 μM, “II” represents an IC50 equal or higher than 0.1 μM and less than 1 μM, “III” represents an IC50 equal or higher than 1 µM and less than 10 µM and “IV” represents an IC50 equal or higher than 10 µM

[4] = microscale thermophoresis, His-tag labelled KMT9 (20 nM), read-out: MST
[5] = ΔTm, 500 µM compound, 2 μM KMT9, 5X SO, read-out: Thermal shift
[6] = from entry 155: MTaseGlo assay, read-out: Inhibition
[7] = His-tag labelled KMT9 20 nM, read-out: MST (Kd)
[8] = 500 µM compound, 2 μM KMT9, read-out: Thermal shift (ΔTm)
[9] = MTaseGlo procedure (entries from 155), read-out: Inhibition (IC50)

| Kd (KMT9 [1]; [4]) [nM] | ΔTm at 500 µM (KMT9 [2]; [5]) [°C] | IC50 (KMT9 [3]; [6]) [nM] | Kd (KMT9 [1]; [7]) [nM] | ΔTm at 500 µM (KMT9 [2]; [8]) [°C] | IC50 (KMT9 [3]; [9]) [nM] | SMILES | further results |
| --- | --- | --- | --- | --- | --- | --- | --- |
| 100 to 1000 | 15 to 20 | 1000 to 10000 |  |  |  | O[C@@H]1[C@@H](CNCCCNCCc2ccccc2)C[C@@H](n2cc(-c3nccs3)c3cnc(Cl)nc32)[C@@H]1O [Compound 638, (1R,2S,3R,5R)-3-(2-Chloro-5-(thiazol-2-yl)-7H-pyrrolo[2,3-d]pyrimidin-7-yl)-5-(((3-(phenethylamino)propyl)amino)methyl)cyclopentane-1,2-diol] |  |
|  |  |  | ≤ 10 | > 20 | 100 to 1000 | CN(CCCNCCc1ccc(F)cc1)C[C@H]1C[C@@H](n2cc(-c3nccs3)c3c(N)nc(Cl)nc32)[C@H](O)[C@@H]1O [Compound 648, (1R,2S,3R,5R)-3-[4-Amino-2-chloro-5-(1,3-thiazol-2-yl)pyrrolo[2,3-d]pyrimidin-7-yl]-5-{[(3-{[2-(4-fluorophenyl)ethyl]amino}propyl)(methyl)amino]methyl}cyclopentane-1,2-diol] |  |
|  |  |  | ≤ 10 | 10 to 15 | 100 to 1000 | COc1cccc([C@H]2C[C@@H](n3ccc4c(N)nc(Cl)nc43)[C@H](O)[C@@H]2O)c1 [Compound 670, (1R,2S,3R,5R)-3-{4-amino-2-chloropyrrolo[2,3-d]pyrimidin-7-yl}-5-(3-methoxyphenyl)cyclopentane-1,2-diol] |  |
|  |  |  | 10 to 100 | 10 to 15 | 100 to 1000 | COc1cc(OC)cc([C@H]2C[C@@H](n3ccc4c(N)nc(Cl)nc43)[C@H](O)[C@@H]2O)c1 [Compound 664, (1R,2S,3R,5R)-3-{4-Amino-2-chloropyrrolo[2,3-d]pyrimidin-7-yl]-5-(3,5-dimethoxyphenyl)cyclopentane-1,2-diol] |  |
| > 1000 | 10 to 15 | 1000 to 10000 |  |  |  | O[C@@H]1[C@@H](CNCCCNCCc2ccccc2)C[C@@H](n2cc(-c3cc(Cc4ccccc4)cs3)c3cncnc32)[C@@H]1O [Compound 637, (1R,2S,3R,5R)-3-(5-(4-benzylthiophen-2-yl)-7H-pyrrolo[2,3-d]pyrimidin-7-yl)-5-(((3-(phenethylamino)propyl)amino)methyl)cyclopentane-1,2-diol] |  |
|  |  |  | 10 to 100 | ≤ 10 | 1000 to 10000 | CNc1nc(Cl)nc2c1ccn2[C@@H]1C[C@H](c2ccc(O)cc2)[C@@H](O)[C@H]1O [Compound 656, (1R,2S,3R,5R)-3-(2-chloro-4-(methylamino)-7H-pyrrolo[2,3-d]pyrimidin-7-yl)-5-(4-hydroxyphenyl)cyclopentane-1,2-diol] |  |
| > 1000 | 10 to 15 | 1000 to 10000 |  |  |  | O[C@@H]1[C@@H](CNCCCNCCc2ccccc2)C[C@@H](n2cc(-c3nc(Oc4ccccc4)cs3)c3cncnc32)[C@@H]1O [Compound 639, (1S,2R,3R,5R)-3-(((3-(Phenethylamino)propyl)amino)methyl)-5-(5-(4-phenoxythiazol-2-yl)-7H-pyrrolo[2,3-d]pyrimidin-7-yl)cyclopentane-1,2-diol] |  |
| > 1000 | 10 to 15 | 1000 to 10000 |  |  |  | CS(=O)(=O)n1ccc(-c2cn([C@@H]3C[C@H](CNCCCNCCc4ccccc4)[C@@H](O)[C@H]3O)c3ncncc23)n1 [Compound 640, (1R,2S,3R,5R)-3-(5-(1-(Methylsulfonyl)-1H-pyrazol-3-yl)-7H-pyrrolo[2,3-d]pyrimidin-7-yl)-5-(((3-(phenethylamino)propyl)amino)methyl)cyclopentane-1,2-diol] |  |

Continued, compound first:

| SMILES | Kd (KMT9 [1]; [4]) [nM] | ΔTm at 500 µM (KMT9 [2]; [5]) [°C] | IC50 (KMT9 [3]; [6]) [nM] | Kd (KMT9 [1]; [7]) [nM] | ΔTm at 500 µM (KMT9 [2]; [8]) [°C] | IC50 (KMT9 [3]; [9]) [nM] | further results |
| --- | --- | --- | --- | --- | --- | --- | --- |
| Nc1ncnc2c1ccn2[C@@H]1C[C@H](c2ccccc2)[C@@H](O)[C@H]1O [Compound 385, (1R,2S,3R,5R)-3-(4-amino-7H-pyrrolo[2,3-d]pyrimidin-7-yl)-5-phenylcyclopentane-1,2-diol] | > 1000 | ≤ 10 | > 10000 |  |  |  |  |
| O[C@@H]1[C@H](O)[C@@H](C2=CCCN(C3CC3)C2)C[C@H]1n1cc(-c2nc(Cc3ccccc3)cs2)c2cnc(Cl)nc21 [Compound 587, (1R,2S,3R,5R)-3-[5-(4-Benzyl-1,3-thiazol-2-yl)-2-chloropyrrolo[2,3-d]pyrimidin-7-yl]-5-(1-cyclopropyl-5,6-dihydro-2H-pyridin-3-yl)cyclopentane-1,2-diol] |  |  |  |  |  |  | Kd (KMT9 [1]; His-tag labelled KMT9 20 nM, Kd class, read-out: MST): > 1000 nM; ΔTm at 500 µM (KMT9 [2]; ΔTm class, 500 uM compound, 2 μM KMT9, read-out: Thermal shift): ≤ 10 °C; IC50 (KMT9 [3]; IC50 class, MTaseGlo procedure (entries from 155 on), read-out: Inhibition): > 10000 nM |
| Nc1nc(Cl)nc2c1c(-c1nc(Cc3ccccc3)cs1)cn2[C@@H]1C[C@H](C2CCN(CC(F)F)CC2)[C@@H](O)[C@H]1O [Compound 511, (1R,2S,3R,5R)-3-[4-amino-5-(4-benzyl-1,3-thiazol-2-yl)-2-chloropyrrolo[2,3-d]pyrimidin-7-yl]-5-[1-(2,2-difluoroethyl)piperidin-4-yl]cyclopentane-1,2-diol] |  |  |  | 100 to 1000 | 10 to 15 | 1000 to 10000 |  |
| Nc1nc(Cl)nc2c1c(-c1nc(Cc3ccccc3)cs1)cn2[C@@H]1C[C@H](C2CCN(Cc3cccs3)CC2)[C@@H](O)[C@H]1O [Compound 526, (1R,2S,3R,5R)-3-(4-amino-5-(4-benzylthiazol-2-yl)-2-chloro-7H-pyrrolo[2,3-d]pyrimidin-7-yl)-5-(1-(thiophen-2-ylmethyl)piperidin-4-yl)cyclopentane-1,2-diol] |  |  |  | ≤ 10 | 15 to 20 | 100 to 1000 |  |
| Nc1nc(Cl)nc2c1c(-c1nc(Cc3ccccc3)cs1)cn2[C@@H]1C[C@H](C2CCN(Cc3ccncc3)CC2)[C@@H](O)[C@H]1O [Compound 527, (1R,2S,3R,5R)-3-(4-amino-5-(4-benzylthiazol-2-yl)-2-chloro-7H-pyrrolo[2,3-d]pyrimidin-7-yl)-5-(1-(pyridin-4-ylmethyl)piperidin-4-yl)cyclopentane-1,2-diol] |  |  |  | 10 to 100 | 10 to 15 | 1000 to 10000 |  |
| O[C@@H]1[C@@H](CN(CCCNCCc2ccccc2)c2cn[nH]c2)C[C@@H](n2cc(-c3cccs3)c3cncnc32)[C@@H]1O [Compound 616] | 10 to 100 | 10 to 15 | 1000 to 10000 |  |  |  |  |
| Nc1ncnc2c1ccn2[C@@H]1C[C@H](c2cc(Cl)cc(Cl)c2)[C@@H](O)[C@H]1O [Compound 384, (1R,2S,3R,5R)-3-(4-amino-7H-pyrrolo[2,3-a]pyrimidin-7-yl)-5-(3,5-dichlorophenyl) cyclopentane-1,2-diol] | > 1000 | ≤ 10 | > 10000 |  |  |  |  |
| COc1ccc([C@H]2C[C@@H](n3ccc4c(N)nc(Cl)nc43)[C@H](O)[C@@H]2O)cn1 [Compound 591, (1R,2S,3R,5R)-3-{4-amino-2-chloropyrrolo[2,3-d]pyrimidin-7-yl}-5-(6-methoxypyridin-3-yl)cyclopentane-1,2-diol] |  |  |  | 10 to 100 | 10 to 15 | 100 to 1000 |  |
| O[C@@H]1[C@@H](CNCCCNCCc2ccccc2)C[C@@H](n2cc3c4c(ncnc42)NCCC3)[C@@H]1O [Compound 628, (1S,2R,3R,5R)-3-(((3-(Phenethylamino)propyl)amino)methyl)-5-(6,7,8,9-tetrahydro-2H-2,3,5,6-tetraazabenzo[cd]azulen-2-yl)cyclopentane-1,2-diol] | 100 to 1000 | 10 to 15 | 1000 to 10000 |  |  |  |  |
| CNc1nc(Cl)nc2c1ccn2[C@@H]1C[C@H](CNCCCNCCc2cccc(Oc3ccccc3)c2)[C@@H](O)[C@H]1O [Compound 555, (1R,2S,3R,5R)-3-(2-chloro-4-(methylamino)-7H-pyrrolo[2,3-d]pyrimidin-7-yl)-5-(((3-((3-phenoxyphenethyl)amino)propyl)amino)methyl)cyclopentane-1,2-diol] |  |  |  | 10 to 100 | 15 to 20 | 100 to 1000 |  |
